Our source for the Ki values is paper PMC3102601 (2011).

As a reminder, the Ki is a measure of affinity in units of concentration, obtained from inhibition or displacement.

Molecules are shown by their SMILES.

The target in this experiment is phosphonoacetate hydrolase (PAc hydrolase) (Pseudomonas fluorescens, UniProt Q51782). Type of experiment: biochemical.
Sequence of phosphonoacetate hydrolase (PAc hydrolase) (Q51782 2-407): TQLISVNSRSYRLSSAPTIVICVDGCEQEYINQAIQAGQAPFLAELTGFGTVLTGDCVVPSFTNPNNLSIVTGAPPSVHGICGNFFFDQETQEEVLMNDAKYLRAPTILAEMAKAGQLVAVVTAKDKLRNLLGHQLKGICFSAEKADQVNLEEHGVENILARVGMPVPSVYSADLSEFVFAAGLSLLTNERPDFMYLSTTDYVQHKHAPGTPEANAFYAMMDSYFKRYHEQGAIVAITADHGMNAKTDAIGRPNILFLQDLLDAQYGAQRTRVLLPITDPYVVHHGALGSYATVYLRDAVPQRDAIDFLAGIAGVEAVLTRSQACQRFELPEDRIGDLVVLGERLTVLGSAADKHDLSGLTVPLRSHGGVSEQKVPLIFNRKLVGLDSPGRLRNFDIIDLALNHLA

On to `O=C(O)C(=O)CP(=O)(O)O` [phosphonopyruvate], for which the affinity corresponds to a Ki of 1200 ± 800 µM.
